Values of other authors in paper PMC9276671, “A first-in-human Phase I dose-escalation trial of the novel therapeutic peptide, ALM201, demonstrates a favourable safety profile in unselected patients with ovarian cancer and other advanced solid tumours” (British Journal of Cancer, 2022).
No end group written: not given here.

Test system: HT29, DU145 and MDA-231 xenografts
Conditions: cited from earlier work

Sequence: IRQQPRDPPTETLELEVSPDPAS [ALM201]
- Tumour size relative to vehicle controls (0.3 mg/kg and 3.0 mg/kg daily or three times weekly, HT29, DU145 and MDA-231, ref Investigator brochure (IB)): significant inhibition of tumour size
- Anti-tumour activity in vivo (single agent or in combination with chemotherapeutic agents, tumour xenograft models, ref Almac Discovery, manuscript in preparation): significant anti-tumour activity
